{
  "source": "patent US20100189683A1",
  "about": "“Pulsatile Dosing of Gossypol for Treatment of Disease” (Ascenta Therapeutics, Inc., priority 2008, published 2010)",
  "key": {"[1]": {"system": "men with docetaxel-refractory castration-resistant prostate cancer", "assay": "CS-202 Cohort B: AT-101 added to docetaxel/prednisone in docetaxel-refractory CRPC", "description": "An open-label non-randomized Phase I-II clinical trial (labeled CS-202) is being carried out on patients with histologically confirmed metastatic prostate cancer. Briefly, patients are divided in into two cohorts: Cohort A-Patients with rising PSA level on hormonal therapy, i.e., hormone-refractory patients, and Cohort B-Patients with PSA or disease progression on docetaxel (taxotere), i.e., docetaxel-refractory patients. All patients were treated with 40-60 mg (−)-gossypol acetic acid co-crystal 40-60 mg BID days 1-3, every 21 days, 75 mg/m2 docetaxel q 21 days and prednisone, daily per label.\nTreatment regimen in this study is: oral AT-101 40 mg BID×3 days q 3 weeks, IV taxotere 75 mg/m^2 q 3 weeks, and oral prednisone 5 mg BID daily.\nA clinical study of docetaxel and prednisone in combination with AT-101 using a pulse administration schedule in men with docetaxel-refractory castration-resistant prostate cancer (CRPC) is ongoing (see Example 4, cohort B patients). A strict definition of docetaxel refractoriness which requires that the patient have progression as measured by PSA levels, RECIST, or bone scan while receiving docetaxel (D) and prednisone (P) is being used in the study. RECIST criteria are widely-used and well known in the art. The intervention is to continue docetaxel and prednisone treatment and to add AT-101."}, "[2]": {"system": "A549 NSCLC xenograph model", "assay": "In vivo efficacy in the A549 NSCLC xenograft model", "design": "species or system nude mice", "details": "intermittent dosing 60 mg/kg po days 1-3 and 15-17, in combination with taxotere 30 mg/kg iv single dose", "description": "The in vivo efficacy of (−)-gossypol acetic acid co-crystals alone or in combination with taxotere (TXT) in the A549 NSCLC xenograph model is shown in FIGS. 2 and 3. About 5 million cells of A549 were inoculated into nude mice, 8 mice per dosing group. In one experiment, (−)-gossypol acetic acid co-crystals were administered at 15 mg/kg, oral dosing (po), daily for 21 days, either alone or in combination with taxotere at 8 mg/kg, iv, once a week for three weeks (FIG. 2). In another experiment, (−)-gossypol acetic acid co-crystals were administered at 60 mg/kg, po, daily for three days per week (day 1-3/week) every two weeks (days 1-3, and then days 15-17), either alone or in combination with taxotere at 30 mg/kg, iv, single dose only, once every three weeks (FIG. 3)."}, "[3]": {"system": "patients with histologically confirmed metastatic prostate cancer", "assay": "CS-202 Phase I data from 9 patients (toxicity)", "format": "in vivo, human", "details": "40-60 mg BID days 1-3 every 21 days with docetaxel 75 mg/m2 and prednisone"}, "[4]": {"system": "men with treatment naïve CRPC", "assay": "Single agent AT-101 administration (20-30 mg daily)", "format": "in vivo, human", "details": "single agent AT-101 at 20-30 mg daily", "from_the_text": "Better compliance with a 3-day dosing regimen, compared to daily for 21 of 28 days, for example, is expected."}, "[5]": {"system": "patients with metastatic prostate cancer, hormone-refractory", "assay": "CS-202 Phase I-II, Cohort A (hormone-refractory patients): PSA and tumor response", "format": "in vivo, human", "details": "with docetaxel and prednisone", "from_the_text": "See N. Engl. J. Med. 351:1502-1512 (2004) for further details of TAX 327 clinical study.\n(“D”=docetaxel; “P”=prednisone)."}, "[6]": {"system": "patients with advanced cancer", "assay": "Pulsatile dose administration of AT-101 b.i.d. times 3 days every other week, clinical efficacy and case summaries", "format": "in vivo, human", "from_the_text": "Following pulsatile dose administration of (−)-gossypol to patients with advanced cancer, clinical efficacy (e.g., patients having stable disease for 60 days or more) was monitored. […] The case summaries are as follows:\nPatient 1 is a person diagnosed with non-small cell lung cancer (NSCLC) by bronchial biopsy in March 2005. The patient initially received the Carboplatin/paclitaxel with radiation therapy as adjuvant therapy from April to May 2005. Disease progression was diagnosed in September 2005 and treatment with erlotinib was begun in October 2005. The patient had progressive disease in January 2006. The patient started on treatment with AT-101 40 mg b.i.d. times 3 days every other week in March 2006. When the patient started on treatment with AT-101 they had extensive lymph node disease that remained stable on study drug for approximately 939 days (2.6 years). The patient's baseline signs and symptoms included: anemia, fatigue and productive cough. Their medical history includes: history of smoking, COPD, BPH, hypercholesterolemia, hypophosphatemia, RT induced esophagitis.\nPatient 2 is a person diagnosed with a neuroendocrine carcinoma by a CT guided biopsy of an abdominal mass in May 2002. The patient was initially treated with interferon alpha from September 2002 to March 2003 but the disease progressed. Subsequently, the patient was treated with an investigational VEGFR2 targeted agent, SUO11248, from August 2003 to March 2004 until progression. The patient next received interferon plus capecitabine from August 2004 to June 2005 until disease progression in July 2005. Next, the patient was treated with […] doxirubicin from July 2005 to January 2006 until disease progression in February 2006. They started on the AT-101 treatment in February 2006 and received AT-101 30 mg b.i.d. times 3 days every other week. At the start of therapy, disease was present in the liver, abdomen, and pelvis and notable for numerous mesenteric masses. These remained stable on study for 18 cycles (534 days). The patient came off study due to increased weight loss and the investigator decision to send the patient for surgery for tumor debulking. The patient's baseline signs and symptoms included tumor pain, fatigue and weight loss. The patient's medical history included: GERD, HTN, congenital pulmonary cysts, anemia, and diarrhea."}, "[7]": {"target": "Mcl-1 (Homo sapiens, UniProt Q07820)", "sequence (Q07820 whole entry)": "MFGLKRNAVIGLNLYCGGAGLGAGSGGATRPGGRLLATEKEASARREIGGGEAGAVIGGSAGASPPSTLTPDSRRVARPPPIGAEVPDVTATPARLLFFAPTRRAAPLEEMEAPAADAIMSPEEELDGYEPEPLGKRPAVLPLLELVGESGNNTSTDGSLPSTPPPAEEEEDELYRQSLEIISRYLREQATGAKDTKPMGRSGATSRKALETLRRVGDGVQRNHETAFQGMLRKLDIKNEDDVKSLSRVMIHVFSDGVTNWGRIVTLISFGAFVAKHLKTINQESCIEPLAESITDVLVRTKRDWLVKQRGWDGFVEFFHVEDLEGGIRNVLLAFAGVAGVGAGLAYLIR", "details": "U.S. Patent Application No. 2003/0008924; cited from earlier work"}, "[8]": {"target": "Bcl-2 (Homo sapiens, UniProt P10415)", "sequence (P10415 whole entry)": "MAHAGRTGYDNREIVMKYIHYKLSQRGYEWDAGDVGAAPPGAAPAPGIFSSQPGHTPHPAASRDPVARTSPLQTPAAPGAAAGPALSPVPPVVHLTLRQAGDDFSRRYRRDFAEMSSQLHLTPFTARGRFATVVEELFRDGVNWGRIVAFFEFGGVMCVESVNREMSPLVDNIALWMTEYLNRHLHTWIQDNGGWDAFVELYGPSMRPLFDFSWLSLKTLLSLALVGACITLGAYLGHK", "details": "U.S. Patent Application No. 2003/0008924; cited from earlier work"}, "[9]": {"target": "Bcl-XL (Homo sapiens, UniProt Q07817)", "sequence (Q07817 whole entry)": "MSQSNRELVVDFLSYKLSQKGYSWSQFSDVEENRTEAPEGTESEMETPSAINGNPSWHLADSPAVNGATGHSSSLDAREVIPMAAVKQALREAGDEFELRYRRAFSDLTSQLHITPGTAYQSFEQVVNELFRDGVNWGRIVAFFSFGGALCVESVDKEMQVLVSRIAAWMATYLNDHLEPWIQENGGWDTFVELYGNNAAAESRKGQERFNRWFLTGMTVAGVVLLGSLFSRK", "details": "U.S. Patent Application No. 2003/0008924; cited from earlier work"}, "[10]": {"system": "all-corners with relapsed SCLC", "details": "oral versus i.v. topotecan HCl; cited from earlier work"}, "[11]": {"details": "20 patients with measurable disease by RECIST"}, "[12]": {"details": "AT-101 added to continued docetaxel and prednisone"}, "[13]": {"details": "first 11 patients of Cohort B, with docetaxel and prednisone"}, "[14]": {"details": "Patient 1, NSCLC, 40 mg b.i.d. times 3 days every other week"}, "[15]": {"details": "Patient 2, 30 mg b.i.d. times 3 days every other week"}},
  "note": "Structures can show the parent of a compound that is named as a salt.",
  "data": [
    {"smiles": "Cc1cc2c(C(C)C)c(O)c(O)c(C=O)c2c(O)c1-c1c(C)cc2c(C(C)C)c(O)c(O)c(C=O)c2c1O", "note": "[AT-101, (−)-gossypol acetic acid co-crystal]", "values": [
      {"measurement": "Complete response (CR)", "setting": "[1]; [11]", "value": "one complete response (CR)"},
      {"measurement": "PRs (RECIST)", "setting": "[1]; [11]", "value": 4},
      {"measurement": "Patients with major tumor shrinkage based on radiographic assessments", "setting": "[1]; 20 patients with measurable disease by RECIST criteria at baseline", "value": "6/20"},
      {"measurement": "Patients who have achieved a PSA partial response (PR) (50% or greater reduction)", "setting": "[1]; [12]", "value": "7/35"},
      {"measurement": "Patients with some PSA reduction", "setting": "[1]; [12]", "value": "20/35"},
      {"measurement": "PSA response kinetics", "setting": "[1]; added to a taxotere/prednisone regimen, patients of Cohort B", "value": "abrupt reversal of the PSA response (from rising to falling)"},
      {"measurement": "Reduction in tumor volume", "setting": "[1]; another single patient with measurable disease", "value": 29, "unit": "%"},
      {"measurement": "Patients having a 30+% decline in PSA response", "setting": "[1]; [13]", "value": 4, "unit": "patients"},
      {"measurement": "Patients having a 50+% decline in PSA response", "setting": "[1]; [13]", "value": 2, "unit": "patients"},
      {"measurement": "Patients with the desired PSA response", "setting": "[1]; [13]", "value": 6, "unit": "patients"},
      {"measurement": "Peak and AUC concentrations", "setting": "[1]; human, in vivo", "value": "higher peak and AUC concentrations"},
      {"measurement": "Patients on-study for 4 months or longer", "setting": "[1]; of 35 patients", "value": "Eight out of the 35 patients"},
      {"measurement": "Patients on-study for 6 months or longer", "setting": "[1]; of 35 patients", "value": 3, "unit": "patients"},
      {"measurement": "D/P refractory patients who have had a PSA PR", "setting": "[1]; patients meeting the strict definition of refractoriness", "value": "4/32"},
      {"measurement": "Tolerability", "setting": "[1]; pulsatile dose administration", "value": "well tolerated"},
      {"measurement": "D/P chemoresistance", "setting": "[1]; pulsatile dose administration, some patients with CRPC", "value": "overcomes D/P chemoresistance in some patients with CRPC"},
      {"measurement": "Responses, time-to-event plot", "setting": "[1]; taxotere-refractory patients (37 eligible; 21 with measurable disease), AT-101 40 mg BID×3 days q 3 weeks added to taxotere/prednisone", "value": "multiple durable responses"},
      {"measurement": "RECIST responses", "setting": "[1]; taxotere-refractory patients, AT-101 40 mg BID×3 days q 3 weeks added to taxotere/prednisone", "value": "RECIST partial responses are observed"},
      {"measurement": "Tumor volume", "setting": "[2]", "value": "effectively reduces tumor volume"},
      {"measurement": "Docetaxel hematological toxicity", "setting": "[3]", "value": "no increase in docetaxel hematological toxicity"},
      {"measurement": "Dose-limiting toxicities", "setting": "[3]", "value": "no dose-limiting toxicities"},
      {"measurement": "Severe gastrointestinal toxicity", "setting": "[3]", "value": "no severe gastrointestinal toxicity"},
      {"measurement": "RECIST SD (stable disease)", "setting": "[4]", "value": "no RECIST SD (stable disease)"},
      {"measurement": "PSA PRs", "setting": "[4]; compared with pulsatile dosing with D/P", "value": "fewer PSA PRs"},
      {"measurement": "PSA response versus time", "setting": "[5]; Cohort A", "value": "PSA reductions occur early in the treatment and are long lasting"},
      {"measurement": "PSA response", "setting": "[5]; first 20 patients of Cohort A", "value": "high rate of PSA response"},
      {"measurement": "Patients refractory at the onset of treatment", "setting": "[5]; first 20 patients of Cohort A", "value": "only one patient out of 20 was refractory"},
      {"measurement": "On-treatment toxicities", "setting": "[6]; [14]", "value": "grade 2 peripheral neuropathy"},
      {"measurement": "Time disease remained stable on study drug", "setting": "[6]; [14]", "value": "approximately 939 days"},
      {"measurement": "On treatment grade 1 toxicities", "setting": "[6]; [15]", "value": "general body aches, nausea, flatulence, headache, fatigue, hypomagnesemia, vomiting, hypokalemia and diarrhea"},
      {"measurement": "On treatment grade 2 toxicities", "setting": "[6]; [15]", "value": "weight loss, nausea, vomiting"},
      {"measurement": "Time disease remained stable on study", "setting": "[6]; Patient 2, neuroendocrine carcinoma, 30 mg b.i.d. times 3 days every other week, 18 cycles", "value": 534, "unit": "days"},
      {"measurement": "On treatment grade 3 toxicity", "setting": "[6]; Patient 2, considered serious, determined to be unrelated to AT-101 treatment", "value": "small bowel obstruction"},
      {"measurement": "Patients with clinical benefit (prolonged progression free period of more than 1 year)", "setting": "[6]; among 37 patients, b.i.d. times 3 days every other week", "value": "two patients had clinical benefit"}
    ]},
    {"smiles": "Cc1cc2c(C(C)C)c(O)c(O)c(C=O)c2c(O)c1-c1c(C)cc2c(C(C)C)c(O)c(O)c(C=O)c2c1O", "note": "[Gossypol, gossypol]", "values": [
      {"measurement": "Binding to Mcl-1 at the BH3 binding groove", "setting": "[7]", "value": "shown to bind"},
      {"measurement": "Binding to Bcl-2 at the BH3 binding groove", "setting": "[8]", "value": "shown to bind"},
      {"measurement": "Binding to Bcl-XL at the BH3 binding groove", "setting": "[9]", "value": "shown to bind"}
    ]},
    {"smiles": "CC[C@@]1(O)C(=O)OCc2c1cc1n(c2=O)Cc2cc3c(CN(C)C)c(O)ccc3nc2-1", "note": "[topotecan HCl, (S)-10-[(dimethylamino)methyl]-4-ethyl-4,9-dihydroxy-1H-pyrano[3′,4′:6,7] indolizino [1,2-b] quinoline-3,14-(4H,12H)-dione monohydrochloride]", "values": [
      {"measurement": "Median progression free survival (PFS)", "setting": "[10]", "value": 13.1, "unit": "weeks"},
      {"measurement": "ORR", "setting": "[10]", "value": 44, "unit": "%"}
    ]}
  ]
}
